From PMC10597453, “Novel inhibitors that target bacterial virulence identified via HTS against intra-macrophage survival of Shigella flexneri” (mSphere, 2023) come the findings set out here.

≈ marks a conversion by molar mass, not a printed value.

One assay concerns S. flexneri 2457T. The assay can be described thus: Shigella antibacterial assay (resazurin). The class given is cell-based, Shigella flexneri. To be noted: Shigella flexneri; S. flexneri 2457T, resazurin assay. On the procedure:
An antibacterial assay against S. flexneri 2457T was performed according to the previously described protocol ([40]). The antibacterial assay was used to determine the MIC90 values of potential inhibitors for S. flexneri 2457T. The assay measures the effect of compounds on the bacteria using resazurin (Thermo Fisher Scientific) measurement as surrogate of bacterial viability. Briefly, to perform the extracellular dose responses, compounds were pre-dispensed in DMSO, and threefold serial dilutions were made for each compound into 384-well plate format. Bacterial inoculum for the assay was prepared in MH medium, resulting at 1 × 10^6 CFU/mL, and 5 µL of this culture was dispensed per well. Then, plates were incubated at 37°C overnight. The resazurin reagent (10 µL) was added to each well followed by an incubation at RT and darkness for 3 hours. The fluorescence intensity of the assay plates was measured using microplate reader (EnVision, PerkinElmer). For MIC90 determination, data were normalized by using DMSO at a final concentration of 0.5% as the negative control (100% bacterial growth) and moxifloxacin at a final concentration of 20 µM as the positive control (0% bacterial growth). The experiment was done in duplicate.
On the technique in general: Resazurin is reduced to fluorescent resorufin, in cell work by metabolically active cells.

Assay [1] concerns S. flexneri 2457T-nl in THP-1 macrophages. The experiment in a line: Shigella intra-macrophage survival dose-response assay (luciferase readout). As to conditions: Shigella flexneri, THP-1, read-out: Shigella Intra-macrophage Survival IC50.
Method: The experimental protocol for the Shigella intra-macrophage survival screen is divided into three time segments: (i) THP-1 macrophage and bacteria preparation 1 day prior to compound screen assay, (ii) THP-1 differentiation, invasion, gentamicin treatment, dispensing of infected cells onto plates pre-dispensed with compounds to be tested, and the beginning of their incubation performed on the same day, and (iii) dispensing of the Nano-Luc substrate and luminescence readout after 18 hours of incubation.
The assay was adapted to the 1,536-well plate format for the HTS. A multidrop dispenser with the small tube metal tip cassette (Thermo Fisher Scientific) was used to seed 5 µL of the cell suspension to plates pre-dispensed with compounds to be tested that were transferred to RT 1–1.5 hours before adding infected cells. Plates were incubated for 18 hours at 37°C in a humidified atmosphere with 5% CO2.
After incubation, the bacterial count is quantified by luminescence readout. Luminescence correlated linearly with the number of viable bacteria. The Nano-Luc substrate solution was prepared according to the manufacturer (Nano-Glo Luciferase Assay System, Promega, Madison, WI, USA). A multidrop dispenser with the small tube metal tip cassette (Thermo Fisher Scientific) was used to dispense 2 µL of substrate per well, and plates were stored in the dark prior to reading. Luminescence was read (0.1 s/well) on a microplate reader (EnVision, PerkinElmer) after 30 minutes of incubation at RT.
The dose-response assay was performed following the above protocol using different plate formats.

As for `CC[C@H]1OC(=O)[C@H](C)[C@@H](O[C@H]2C[C@@](C)(OC)[C@@H](O)[C@H](C)O2)[C@H](C)[C@@H](O[C@@H]2O[C@H](C)C[C@H](N(C)C)[C@H]2O)[C@](C)(O)C[C@@H](C)CN(C)[C@H](C)[C@@H](O)[C@]1(C)O` [Azithromycin, azithromycin, reference compound], the MIC90 against S. flexneri 2457T is 10 µM (≈ 7.49 µg/mL). Further, the IC50 in assay [1] was determined as 80 nM.
In the assay with S. flexneri 2457T, `CO/N=C(\C(=O)N[C@@H]1C(=O)N2C(C(=O)O)=C(CSc3nc(=O)c(=O)[nH]n3C)CS[C@H]12)c1csc(N)n1` [Ceftriaxone, ceftriaxone, reference compound] showed an MIC90 of 0.1 µM (≈ 0.0555 µg/mL). Moreover, in assay [1], the IC50 was determined as 10 nM.

A word on the MIC90: it is an inhibitory concentration at the 90% level, which refers to growth in some studies and to a panel of isolates in others. Low values mean higher susceptibility, high ones lower susceptibility. The term IC50 denotes the concentration needed to halve the response being measured.
